Data: the supplement of paper PMC10307832

Legend:
Experiment in all cases: relative viability (nuclei count vs DMSO), 5 days (fraction); higher = more cells survive
[1] = compound: CN1CCN(CC1)C2=CC(=C(C=C2)NC3=NC(=C(S3)C(=O)C4=C(C=CC=C4Cl)Cl)N)OC [XMD14-99] + CC(=O)c1c(C)c2cnc(Nc3ccc(N4CCNCC4)cn3)nc2n(C2CCCC2)c1=O [Palbociclib] (partner 0.5 µM)
Summary of the method: (§1)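 Lung cancer cell lines were seeded in 1536-well plates and dosed by pin tool the next day, with either a single drug or a fixed anchor-drug dose combined with five library-drug doses (not always all listed) spaced in √10 steps. Five days later, one step fixed the cells and stained their nuclei (final 0.05% Triton X-100, 1% formaldehyde, 1 ug/ml Hoechst), and nuclei were counted on 4× images. Relative viability is the nuclei count in treated wells divided by the count in vehicle wells, and each value is the median of duplicate plates.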

[2] = compound: N[C@@H]1CCCN(c2c(/C=C3\SC(=O)NC3=O)cccc2-c2ccccc2)C1 [AZD1208] + Nc1nc2[nH]cc(CCc3ccc(C(=O)N[C@@H](CCC(=O)O)C(=O)O)cc3)c2c(=O)[nH]1 [Pemetrexed] (partner 0.2 µM)
Summary of the method: as §1

[3] = compound: CN1CCN(CC1)C2=CC(=C(C=C2)NC3=NC(=C(S3)C(=O)C4=C(C=CC=C4Cl)Cl)N)OC [XMD14-99] + Cc1nc(NC(=O)N2CCC[C@H]2C(N)=O)sc1-c1ccnc(C(C)(C)C(F)(F)F)c1 [Alpelisib] (partner 2 µM)
Summary of the method: as §1

[4] = compound: N[C@@H]1CCCN(c2c(/C=C3\SC(=O)NC3=O)cccc2-c2ccccc2)C1 [AZD1208] + CS(=O)(=O)N1CCN(Cc2cc3nc(-c4cccc5[nH]ncc45)nc(N4CCOCC4)c3s2)CC1 [Pictilisib] (partner 1 µM)
Summary of the method: as §1

Row | Cell Line | relative viability ([1]; first compound 0.08 µM) | relative viability ([1]; first compound 0.8 µM) | relative viability ([1]; first compound 2.53 µM) | relative viability ([1]; first compound 8 µM) | relative viability ([2]; first compound 0.08 µM) | relative viability ([2]; first compound 0.253 µM) | relative viability ([2]; first compound 0.8 µM) | relative viability ([2]; first compound 2.53 µM) | relative viability ([2]; first compound 8 µM) | relative viability ([3]; first compound 0.08 µM) | relative viability ([3]; first compound 0.8 µM) | relative viability ([3]; first compound 2.53 µM) | relative viability ([3]; first compound 8 µM) | relative viability ([4]; first compound 0.08 µM) | relative viability ([4]; first compound 0.253 µM) | relative viability ([4]; first compound 0.8 µM) | relative viability ([4]; first compound 2.53 µM) | relative viability ([4]; first compound 8 µM)
1 | NCI-H2342 | 0.564 | 0.614 | 0.576 | 0.544 | 0.869 | 0.749 | 0.699 | 0.738 | 0.568 |  |  |  |  |  |  |  |  | 
2 | SK-MES-1 | 0.345 | 0.343 | 0.372 | 0.223 | 0.993 | 0.999 | 0.956 | 0.842 | 0.864 | 0.924 | 0.909 | 0.851 | 0.591 | 0.257 | 0.326 | 0.303 | 0.3 | 0.291
3 | NCI-H1993 | 0.7 | 0.682 | 0.533 | 0.625 | 0.481 | 0.527 | 0.526 | 0.568 | 0.413 | 0.63 | 0.731 | 0.601 | 0.59 |  | 0.878 | 0.692 | 0.807 | 0.869
4 | HCC-366 | 0.452 | 0.383 | 0.346 | 0.306 | 0.182 | 0.206 | 0.194 | 0.581 | 0.223 | 0.475 | 0.413 | 0.366 | 0.232 | 0.112 | 0.0978 | 0.123 | 0.092 | 0.0878
5 | 201T | 0.351 | 0.368 | 0.371 | 0.333 | 0.346 | 0.339 | 0.305 | 0.269 | 0.327 | 0.998 | 1 | 0.841 | 0.952 | 0.644 | 0.641 | 0.649 | 0.62 | 0.686
6 | HCC-827 | 0.506 | 0.406 | 0.451 | 0.446 | 0.278 | 0.26 | 0.308 | 0.269 | 0.265 | 1.05 | 0.902 | 0.948 | 0.741 | 1.07 | 1.15 | 0.992 | 0.95 | 0.784
7 | NCI-H650 | 0.341 | 0.337 | 0.34 | 0.38 | 0.893 | 0.939 | 0.893 | 0.703 | 0.867 | 1.15 | 0.982 | 0.922 | 0.922 | 0.83 | 0.783 | 0.793 | 0.589 | 0.589
8 | NCI-H596 |  |  |  |  | 0.523 | 0.507 | 0.537 | 0.498 | 0.407 | 0.503 | 0.587 | 0.477 | 0.568 | 0.388 | 0.349 | 0.366 | 0.348 | 0.328
9 | NCI-H1703 |  |  |  |  |  |  |  |  |  | 0.338 | 0.36 | 0.487 | 0.334 | 0.225 | 0.242 | 0.238 | 0.214 | 0.198
10 | Calu-6 |  |  |  |  |  |  |  |  |  | 0.929 | 0.959 | 0.919 | 0.67 | 0.784 | 1 | 0.851 | 0.829 | 0.739
11 | NCI-H1299 |  |  |  |  |  |  |  |  |  | 1.05 | 1.04 | 1.05 | 0.884 | 0.731 | 0.725 | 0.818 | 0.653 | 0.562
12 | ABC-1 | 0.783 | 0.722 | 0.651 | 0.634 |  |  |  |  |  | 1.03 | 0.985 | 0.927 | 0.747 | 0.526 | 0.665 | 0.565 | 0.623 | 0.627
13 | NCI-H1650 | 0.389 | 0.328 | 0.345 | 0.306 | 0.4 | 0.421 | 0.368 | 0.401 | 0.478 |  |  |  |  | 0.529 | 0.575 | 0.434 | 0.395 | 0.41
14 | ChaGo-K-1 | 0.972 | 0.93 | 0.975 | 0.873 | 0.269 | 0.261 | 0.293 | 0.261 | 0.25 |  |  |  |  | 0.979 | 0.698 | 0.644 | 0.537 | 0.484
15 | NCI-H1648 | 0.261 | 0.267 | 0.268 | 0.289 | 0.626 | 0.629 | 0.814 | 0.891 | 1.07 |  |  |  |  |  |  |  |  | 
16 | NCI-H727 | 0.691 | 0.652 | 0.609 | 0.544 |  |  |  |  |  | 0.553 | 0.513 | 0.447 | 0.407 | 0.355 | 0.297 | 0.262 | 0.264 | 0.355
17 | NCI-H1563 |  |  |  |  | 0.762 | 0.764 | 0.734 | 0.705 | 0.768 | 0.85 | 0.894 | 0.957 | 0.869 | 0.566 | 0.545 | 0.672 | 0.635 | 0.629
18 | A549 |  |  |  |  |  |  |  |  |  | 0.749 | 0.759 | 0.641 | 0.576 | 0.409 | 0.423 | 0.303 | 0.283 | 0.358
19 | NCI-H522 | 0.858 | 1.06 | 0.906 | 1.05 | 0.975 | 0.986 | 0.979 | 0.824 | 0.828 |  |  |  |  |  |  |  |  | 
20 | SW 900 | 0.57 | 0.567 | 0.514 | 0.359 | 0.475 | 0.443 | 0.454 | 0.472 | 0.469 |  |  |  |  |  |  |  |  | 
21 | IA-LM |  |  |  |  |  |  |  |  |  | 0.72 | 0.638 | 0.515 | 0.456 | 0.256 | 0.326 | 0.292 | 0.231 | 0.308
22 | EBC-1 |  |  |  |  |  |  |  |  |  | 0.819 | 0.783 | 0.653 | 0.561 | 0.2 | 0.275 | 0.265 | 0.271 | 0.274
